System: 883617-216-R-J1-PDC tumor spheroids, viability
Experiment: Anticancer human tumor 883617-216-R-J1-PDC patient-derived bladder carcinoma cell line growth inhibition [PI3K]
Conditions: spheroids with HUVEC and MSC; for IC50: curve of first compound; for viability, T/C: stronger effect = lower value
Text: Combinatorial screen of targeted agents with the PI3K inhibitors inavolisib, alpelisib, duvelisib, and copanlisib in multi-cell type tumor spheroids
A high-throughput screen of multi-cell type tumor spheroids was designed to identify active combinations of targeted small molecules and PI3K pathway inhibitors. Complex spheroids include a stromal component modeled by human endothelial cells (HUVEC) and fibroblasts modeled by human mesenchymal stem cells (MSCs). The concentration ranges selected for each drug and investigational agent were based upon clinically achievable concentrations if the clinical Cmax of the agent was known.
Compounds. The drugs and investigational agents: inavolisib (NSC800729), alpelisib (NSC765974), duvelisib (NSC772469), copanlisib (NSC816437), ipatasertib (NSC767898), afuresertib (NSC778305), talazoparib (NSC767125), sapanisertib (NSC764658), selumetinib (NSC741078), tovorafenib (DAY101, NSC766906), vemurafenib (NSC761431), ravoxertinib (NSC781343), sotorasib (NSC818433), MRTX1133 (NSC 836407), abemaciclib (NSC 768073), palbociclib (NSC758247), venetoclax (NSC 766270), SY5609 (NSC837396), enzalutamide (NSC755605), and darolutamide (NSC825331), were obtained from the National Cancer Institute (NCI) Developmental Therapeutics Program Chemical Repository. The FDA-approved anticancer drug set is available from the NCI Developmental Therapeutics Program. […] The stock solutions were prepared in dimethyl sulfoxide (DMSO, Sigma-Aldrich, St. Louis, MO, cat. D2650) at 800-fold the tested concentration and stored at -70 degrees C prior to their use. All drugs and investigational agents were tested over a range starting from a high concentration at or near the clinical Cmax and decreasing in half-log increments. If the clinical Cmax for an agent had not been determined, the highest concentration tested was 10 microM.
Cell Culture. All cells were maintained in an incubator at 37 degrees C and 5% CO2 with 95% humidity. The PDC lines were cultured according to standard operating procedures established by the NCI PDMR (https://pdmr.cancer.gov/sops/default.htm). All PDCs were thawed and cultured in Matrigel-coated flasks prepared with a working solution of 1X Ham's F-12 nutrient mix, without supplementation (Invitrogen, Waltham, MA, cat. 11765054), 100 U/mL penicillin-streptomycin (Invitrogen, cat. 15140122), and 2.5% Matrigel (Corning Inc., Corning, NY, cat. 354248) for the first three passages. The 354836-022-R-J1-PDC, 475296-252-R-J1-PDC, and 997726-040-R-J2-PDC lines were cultured in 6A media, which includes advanced DMEM/F-12 (Thermo Fisher Scientific, cat. 12634028), 10 mM HEPES (Thermo Fisher Scientific, cat. 15630080), 1X GlutaMAX supplement (Thermo Fisher Scientific, cat. 35050061), 0.1 mg/mL primocin (InvivoGen, San Diego, CA, cat. ant-pm-2), 10% defined fetal bovine serum, heat inactivated (HyClone Laboratories Inc., Logan, UT, cat. SH30070.03HI), 50% L-WRN conditioned media (ATCC, cat. CRL-3276), 1.25 mM N-Acetyl-L-cysteine (Sigma-Aldrich, cat. A9165), 10 mM nicotinamide (Sigma-Aldrich, cat. N0636), 1X B-27 supplement (Thermo Fisher Scientific, cat. 17504044), 1X N-2 supplement (Thermo Fisher Scientific, cat. 17502048), and 10 microM Y-27632 dihydrochloride (Tocris Bioscience, Bristol, United Kingdom, cat. 1254). The 624824-186-R-J2-PDC line was cultured in 6C/Colon 1B media, which includes all 6A media components plus 50 ng/mL human EGF recombinant protein (Thermo Fisher Scientific, cat. PHG0311). […]
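Further: spheroids exposed to agents for 7 days before the viability read.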

CC(=O)c1c(C)c2cnc(Nc3ccc(N4CCNCC4)cn3)nc2n(C2CCCC2)c1=O + CC(Nc1ccc2c(c1)OCCn1cc(N3C(=O)OCC3C(F)F)nc1-2)C(N)=O
IC50 (second compound 0.00316 µM): 74.3 nM | IC50 (second compound 0.01 µM): 54.3 nM | IC50 (second compound 0.0316 µM): 35.9 nM | IC50 (second compound 0.1 µM): 0.515 nM | IC50 (second compound 0.316 µM): < 0.316 nM | IC50 (second compound 1 µM): < 0.316 nM | viability, T/C (second compound 0.00316 µM, first compound 0.000316 µM): 99.1% | viability, T/C (second compound 0.00316 µM, first compound 0.001 µM): 97.3% | viability, T/C (second compound 0.00316 µM, first compound 0.00316 µM): 86.7% | viability, T/C (second compound 0.00316 µM, first compound 0.01 µM): 84.1% | viability, T/C (second compound 0.00316 µM, first compound 0.0316 µM): 67% | viability, T/C (second compound 0.00316 µM, first compound 0.1 µM): 43.6% | viability, T/C (second compound 0.01 µM, first compound 0.000316 µM): 78.1% | viability, T/C (second compound 0.01 µM, first compound 0.001 µM): 85.7% | viability, T/C (second compound 0.01 µM, first compound 0.00316 µM): 82% | viability, T/C (second compound 0.01 µM, first compound 0.01 µM): 78.7% | viability, T/C (second compound 0.01 µM, first compound 0.0316 µM): 55.9% | viability, T/C (second compound 0.01 µM, first compound 0.1 µM): 43.4% | viability, T/C (second compound 0.0316 µM, first compound 0.000316 µM): 74.2% | viability, T/C (second compound 0.0316 µM, first compound 0.001 µM): 78.9% | viability, T/C (second compound 0.0316 µM, first compound 0.00316 µM): 67.5% | viability, T/C (second compound 0.0316 µM, first compound 0.01 µM): 69.8% | viability, T/C (second compound 0.0316 µM, first compound 0.0316 µM): 51.2% | viability, T/C (second compound 0.0316 µM, first compound 0.1 µM): 34.9% | viability, T/C (second compound 0.1 µM, first compound 0.000316 µM): 52% | viability, T/C (second compound 0.1 µM, first compound 0.001 µM): 47.8% | viability, T/C (second compound 0.1 µM, first compound 0.00316 µM): 42.8% | viability, T/C (second compound 0.1 µM, first compound 0.01 µM): 42.6% | viability, T/C (second compound 0.1 µM, first compound 0.0316 µM): 32.2% | viability, T/C (second compound 0.1 µM, first compound 0.1 µM): 26.1% | viability, T/C (second compound 0.316 µM, first compound 0.000316 µM): 33.9% | viability, T/C (second compound 0.316 µM, first compound 0.001 µM): 26.1% | viability, T/C (second compound 0.316 µM, first compound 0.00316 µM): 26.7% | viability, T/C (second compound 0.316 µM, first compound 0.01 µM): 26.3% | viability, T/C (second compound 0.316 µM, first compound 0.0316 µM): 18.3% | viability, T/C (second compound 0.316 µM, first compound 0.1 µM): 15.8% | viability, T/C (second compound 1 µM, first compound 0.000316 µM): 18.6% | viability, T/C (second compound 1 µM, first compound 0.001 µM): 15.8% | viability, T/C (second compound 1 µM, first compound 0.00316 µM): 14.3% | viability, T/C (second compound 1 µM, first compound 0.01 µM): 14.8% | viability, T/C (second compound 1 µM, first compound 0.0316 µM): 15.5% | viability, T/C (second compound 1 µM, first compound 0.1 µM): 10.1%
